Results published in US20080064027A1, “TEL/Etv6-mediated inhibition of cell proliferation” (priority 2002, published 2008).
Where two headings read alike, the source gives them in different places.

Tested on: Stat3-ER expressing A375 cells
Assay type: cell-based
Experimental: In order to understand Stat3's ability to affect cell proliferation and cell death, we have examined the profile of genes expressed upon Stat3 activation in A375 cells using oligonucleotide microarrays.
Briefly, microarray analysis was performed using HG U95A GeneChips™ (Affymetrix, Santa Clara, USA) essentially according to the manufacturer's instructions. […] RNA from three independent experiments was pooled and biotin-labeled cRNA probes were generated from each sample starting from 10 μg of total cellular RNA. The resulting biotinylated cRNAs were hybridized to the Affymetrix U95A oligonucleotide array containing more than 12,000 sequences and signals detected. Chip analysis was performed using the Affymetrix Microarray Suite v5 (target intensity 500 used for chip scaling) and GeneSpring 4.2.1 (Silicon Genetics). Changes in gene expression were assessed by looking for concordant changes between replicates using a signed Wilcoxon rank test (as recommended by Affymetrix).

## CCC(=C(c1ccc(O)cc1)c1ccc(OCCN(C)C)cc1)c1ccccc1 [4HT, 4-hydroxytamoxifen, reference compound]
Avge of clones
  expression change (fold): Absent in melanoma 2: 2.1
  expression change (fold): Alpha-1-antichymotrypsin precursor: 2.5
  expression change (fold): Aquaporin 3: 5.2
  expression change (fold): Brain-derived neurotrophic factor: 6.3
  expression change (fold): CCAAT/enhancer binding protein (C/EBP), delta: 4.6
  expression change (fold): Cathepsin L: 3.7
  expression change (fold): Cytokine receptor-like factor 1: 4.8
  expression change (fold): Death-associated protein kinase 1: 5.3
  expression change (fold): Ephrin A1 precursor: 4.0
  expression change (fold): Ets variant gene 6: 4.2
  expression change (fold): Fibronectin: 4.5
  expression change (fold): Fibronectin 1, isoform 1 preproprotein: 5.2
  expression change (fold): Glycine dehydrogenase (decarboxylating, glycine decdarboxylase, glycine cleavage system protein P): 1.7
  expression change (fold): H. sapiens mRNA; cDNA DZFZp586N012: 2.3
  expression change (fold): I factor (complement): 2.9
  expression change (fold): Insulin-like growth factor binding protein 3: 3.9
  expression change (fold): Intercellular adhesion molecule 1 precursor: 2.4
  expression change (fold): Interferon induced transmembrane protein 1 (9-27): 2.8
  expression change (fold): Interleukin 8: 4.9
  expression change (fold): Jun B proto-oncogene: 3.0
  expression change (fold): KIAA0161 gene product: 2.4
  expression change (fold): KIAA0303 protein: 2.9
  expression change (fold): KIAA0500 protein: 4.2
  expression change (fold): Killer cell lectin-like receptor subfamily C, member 2: 6.1
  expression change (fold): Killer cell lectin-like receptor subfamily C, member 3 isoform NKG2-E: 10.3
  expression change (fold): Kynureninase (L-kynurenine hydrolase): 3.6
  expression change (fold): Major vault protein: 2.8
  expression change (fold): Nicotinamide N-methyltransferase: 2.6
  expression change (fold): Niemann-Pick disease, type C1: 2.2
  expression change (fold): Oncostatin M receptor: 3.3
  expression change (fold): Osteoprotegrin: 8.6
  expression change (fold): Prostatic acid phosphatase precursor: 10.5
  expression change (fold): Ras-induced senescence 1: 2.4
  expression change (fold): Regenerating islet-derived 1 alpha (pancreatic stone protein, pancreatic thread protein): 4.0
  expression change (fold): Regulator of G protein signalling 16: 5.3
  expression change (fold): STAT induced STAT inhibitor 3: 9.9
  expression change (fold): Secreted phosphoprotein 1 (osteopontin, bone sialoprotein 1, early T-lymphocyte activation 1): 25.5
  expression change (fold): Serine (or cysteine) protease inhibitor, clade B (ovalbumin), member 3: 100.2
  expression change (fold): Small inducible cytokine A2 (monocyte chemotactic protein 1): 2.4
  expression change (fold): Solute carrier family 2 (facilitated glucose transporter), member 3: 2.6
  expression change (fold): Stanniocalcin 1: 6.7
  expression change (fold): Tyrosine phosphatase/TIGR = HG620-HT620: 2.2
  expression change (fold): v-fos FBJ murine osteosarcoma viral gene homologue: 3.9
  expression change (fold): v-jun avian sarcoma virus 17 oncogene homologue: 4.9
  expression change (fold): v-maf musculoaponeurotic fibrosarcoma oncogene homologue (avian): 1.6
Avge of clones, 2nd listing
  expression change (fold): Aquaporin 3: 4.4
  expression change (fold): Fibronectin 1, isoform 1 preproprotein: 5.0
  expression change (fold): Insulin-like growth factor binding protein 3: 3.1
  expression change (fold): Interleukin 8: 2.6
  expression change (fold): Kynureninase (L-kynurenine hydrolase): 3.3
  expression change (fold): Oncostatin M receptor: 3.3
  expression change (fold): Prostatic acid phosphatase precursor: 2.8
  expression change (fold): Secreted phosphoprotein 1 (osteopontin, bone sialoprotein 1, early T-lymphocyte activation 1): 18.4
  expression change (fold): v-jun avian sarcoma virus 17 oncogene homologue: 4.3
Avge of clones, 3rd listing
  expression change (fold): Kynureninase (L-kynurenine hydrolase): 2.9
Clone1
  expression change (fold): Absent in melanoma 2: 2.2
  expression change (fold): Alpha-1-antichymotrypsin precursor: 2.7
  expression change (fold): Aquaporin 3: 5.2
  expression change (fold): Brain-derived neurotrophic factor: 8.9
  expression change (fold): CCAAT/enhancer binding protein (C/EBP), delta: 5.6
  expression change (fold): Cathepsin L: 3.6
  expression change (fold): Cytokine receptor-like factor 1: 5.2
  expression change (fold): Death-associated protein kinase 1: 5.7
  expression change (fold): Ephrin A1 precursor: 2.8
  expression change (fold): Ets variant gene 6: 3.9
  expression change (fold): Fibronectin: 4.3
  expression change (fold): Fibronectin 1, isoform 1 preproprotein: 7.7
  expression change (fold): Glycine dehydrogenase (decarboxylating, glycine decdarboxylase, glycine cleavage system protein P): 1.8
  expression change (fold): H. sapiens mRNA; cDNA DZFZp586N012: 2.6
  expression change (fold): I factor (complement): 3.8
  expression change (fold): Insulin-like growth factor binding protein 3: 2.5
  expression change (fold): Intercellular adhesion molecule 1 precursor: 2.8
  expression change (fold): Interferon induced transmembrane protein 1 (9-27): 3.1
  expression change (fold): Interleukin 8: 2.3
  expression change (fold): Jun B proto-oncogene: 3.3
  expression change (fold): KIAA0161 gene product: 2.5
  expression change (fold): KIAA0303 protein: 4.2
  expression change (fold): KIAA0500 protein: 1.6
  expression change (fold): Killer cell lectin-like receptor subfamily C, member 2: 9.5
  expression change (fold): Killer cell lectin-like receptor subfamily C, member 3 isoform NKG2-E: 18.4
  expression change (fold): Kynureninase (L-kynurenine hydrolase): 4.0
  expression change (fold): Major vault protein: 3.6
  expression change (fold): Nicotinamide N-methyltransferase: 2.7
  expression change (fold): Niemann-Pick disease, type C1: 2.3
  expression change (fold): Oncostatin M receptor: 4.3
  expression change (fold): Osteoprotegrin: 12.9
  expression change (fold): Prostatic acid phosphatase precursor: 9.3
  expression change (fold): Ras-induced senescence 1: 2.4
  expression change (fold): Regenerating islet-derived 1 alpha (pancreatic stone protein, pancreatic thread protein): 4.7
  expression change (fold): Regulator of G protein signalling 16: 6.9
  expression change (fold): STAT induced STAT inhibitor 3: 9.2
  expression change (fold): Secreted phosphoprotein 1 (osteopontin, bone sialoprotein 1, early T-lymphocyte activation 1): 10.8
  expression change (fold): Serine (or cysteine) protease inhibitor, clade B (ovalbumin), member 3: 103.0
  expression change (fold): Small inducible cytokine A2 (monocyte chemotactic protein 1): 2.8
  expression change (fold): Solute carrier family 2 (facilitated glucose transporter), member 3: 2.9
  expression change (fold): Stanniocalcin 1: 5.2
  expression change (fold): Tyrosine phosphatase/TIGR = HG620-HT620: 2.3
  expression change (fold): v-fos FBJ murine osteosarcoma viral gene homologue: 3.6
  expression change (fold): v-jun avian sarcoma virus 17 oncogene homologue: 3.6
  expression change (fold): v-maf musculoaponeurotic fibrosarcoma oncogene homologue (avian): 1.2
Clone1, 2nd listing
  expression change (fold): Aquaporin 3: 5.7
  expression change (fold): Fibronectin 1, isoform 1 preproprotein: 6.8
  expression change (fold): Insulin-like growth factor binding protein 3: 2.3
  expression change (fold): Interleukin 8: 2.9
  expression change (fold): Kynureninase (L-kynurenine hydrolase): 4.3
  expression change (fold): Oncostatin M receptor: 4.2
  expression change (fold): Prostatic acid phosphatase precursor: 3.3
  expression change (fold): Secreted phosphoprotein 1 (osteopontin, bone sialoprotein 1, early T-lymphocyte activation 1): 16.9
  expression change (fold): v-jun avian sarcoma virus 17 oncogene homologue: 5.6
Clone1, 3rd listing
  expression change (fold): Kynureninase (L-kynurenine hydrolase): 3.9
Clone2
  expression change (fold): Absent in melanoma 2: 2.0
  expression change (fold): Alpha-1-antichymotrypsin precursor: 2.3
  expression change (fold): Aquaporin 3: 5.1
  expression change (fold): Brain-derived neurotrophic factor: 3.6
  expression change (fold): CCAAT/enhancer binding protein (C/EBP), delta: 3.7
  expression change (fold): Cathepsin L: 3.8
  expression change (fold): Cytokine receptor-like factor 1: 4.3
  expression change (fold): Death-associated protein kinase 1: 4.8
  expression change (fold): Ephrin A1 precursor: 5.2
  expression change (fold): Ets variant gene 6: 4.5
  expression change (fold): Fibronectin: 4.6
  expression change (fold): Fibronectin 1, isoform 1 preproprotein: 2.6
  expression change (fold): Glycine dehydrogenase (decarboxylating, glycine decdarboxylase, glycine cleavage system protein P): 1.6
  expression change (fold): H. sapiens mRNA; cDNA DZFZp586N012: 2.0
  expression change (fold): I factor (complement): 2.0
  expression change (fold): Insulin-like growth factor binding protein 3: 5.4
  expression change (fold): Intercellular adhesion molecule 1 precursor: 2.1
  expression change (fold): Interferon induced transmembrane protein 1 (9-27): 2.5
  expression change (fold): Interleukin 8: 7.4
  expression change (fold): Jun B proto-oncogene: 2.6
  expression change (fold): KIAA0161 gene product: 2.4
  expression change (fold): KIAA0303 protein: 1.7
  expression change (fold): KIAA0500 protein: 6.7
  expression change (fold): Killer cell lectin-like receptor subfamily C, member 2: 2.7
  expression change (fold): Killer cell lectin-like receptor subfamily C, member 3 isoform NKG2-E: 2.2
  expression change (fold): Kynureninase (L-kynurenine hydrolase): 3.2
  expression change (fold): Major vault protein: 2.0
  expression change (fold): Nicotinamide N-methyltransferase: 2.5
  expression change (fold): Niemann-Pick disease, type C1: 2.2
  expression change (fold): Oncostatin M receptor: 2.4
  expression change (fold): Osteoprotegrin: 4.4
  expression change (fold): Prostatic acid phosphatase precursor: 11.7
  expression change (fold): Ras-induced senescence 1: 2.5
  expression change (fold): Regenerating islet-derived 1 alpha (pancreatic stone protein, pancreatic thread protein): 3.4
  expression change (fold): Regulator of G protein signalling 16: 3.7
  expression change (fold): STAT induced STAT inhibitor 3: 10.5
  expression change (fold): Secreted phosphoprotein 1 (osteopontin, bone sialoprotein 1, early T-lymphocyte activation 1): 40.1
  expression change (fold): Serine (or cysteine) protease inhibitor, clade B (ovalbumin), member 3: 97.5
  expression change (fold): Small inducible cytokine A2 (monocyte chemotactic protein 1): 2.0
  expression change (fold): Solute carrier family 2 (facilitated glucose transporter), member 3: 2.3
  expression change (fold): Stanniocalcin 1: 8.3
  expression change (fold): Tyrosine phosphatase/TIGR = HG620-HT620: 2.1
  expression change (fold): v-fos FBJ murine osteosarcoma viral gene homologue: 4.1
  expression change (fold): v-jun avian sarcoma virus 17 oncogene homologue: 6.3
  expression change (fold): v-maf musculoaponeurotic fibrosarcoma oncogene homologue (avian): 2.0
Clone2, 2nd listing
  expression change (fold): Aquaporin 3: 3.2
  expression change (fold): Fibronectin 1, isoform 1 preproprotein: 3.3
  expression change (fold): Insulin-like growth factor binding protein 3: 3.9
  expression change (fold): Interleukin 8: 2.2
  expression change (fold): Kynureninase (L-kynurenine hydrolase): 2.4
  expression change (fold): Oncostatin M receptor: 2.5
  expression change (fold): Prostatic acid phosphatase precursor: 2.4
  expression change (fold): Secreted phosphoprotein 1 (osteopontin, bone sialoprotein 1, early T-lymphocyte activation 1): 20.0
  expression change (fold): v-jun avian sarcoma virus 17 oncogene homologue: 3.1
Clone2, 3rd listing
  expression change (fold): Kynureninase (L-kynurenine hydrolase): 2.0
After 24 hrs of treatment
  number of genes significantly decreased: 23 genes
  number of genes significantly increased: 154 genes
  number of genes upregulated more than two-fold: 39 genes
As early as 1 hr after treatment
  SOCS3 expression: rapidly increased
